Some test systems named below: OVCAR-3 ovarian; ACHN renal; UO-31 renal; OVCAR-8 ovarian; OVCAR-5 ovarian; SK-MEL-2 melanoma; HL-60(TB) leukemia; UACC-62 melanoma; SNB-19 CNS; OVCAR-4 ovarian.
Holding throughout (assay): inhibition of tumour cell growth, NCI panel, 48 h

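Tested at 5 concentrations; 48 h exposure; 96-well plates; endpoints linearly interpolated, else capped at highest concentration. At the GI50, growth is halved. TGI marks complete inhibition of growth.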

Experimental findings from PubChem BioAssay (NCI) are described below.

Turning to `COC(=O)/C(=N\NC(N)=S)C(C#N)c1ccccc1` (stereo not given), the TGI in the experiment on OVCAR-3 ovarian, with ACHN renal, in the experiment with UO-31 renal, in the experiment on OVCAR-8 ovarian, with OVCAR-5 ovarian and in the experiment with SK-MEL-2 melanoma was > 100 µM throughout. Also, the TGI in the experiment on HL-60(TB) leukemia, in the experiment on UACC-62 melanoma, in the experiment on SNB-19 CNS and with OVCAR-4 ovarian was > 100 µM throughout.
Turning to `CC1CCC2N(C1)CC1C3(O)CC45OC6(O)C(O)CCC4(C)C6CCC5C3(O)CC(O)C1(O)C2(C)O` (stereo not given), the TGI in the experiment on OVCAR-3 ovarian, in the experiment on ACHN renal, with UO-31 renal, with OVCAR-8 ovarian, in the experiment with OVCAR-5 ovarian and in the experiment with SK-MEL-2 melanoma was > 100 µM throughout. Further, the TGI with HL-60(TB) leukemia, in the experiment with UACC-62 melanoma, in the experiment on SNB-19 CNS and in the experiment with OVCAR-4 ovarian was > 100 µM throughout.
Turning to `COc1cccc(C2NC(=S)NC(C)=C2C(=O)Nc2ccc(Cl)c(Cl)c2)c1` (stereo not given), the GI50 in the experiment on OVCAR-3 ovarian was 8.88 µM; in the experiment on ACHN renal, 10.1 µM; in the experiment with UO-31 renal, 9.1 µM; in the experiment on OVCAR-8 ovarian, 12.4 µM; with OVCAR-5 ovarian it was 28.7 µM; in the experiment on SK-MEL-2 melanoma, 15.7 µM. Further, the GI50 is > 50 µM in the experiment on HL-60(TB) leukemia, 8.2 µM in the experiment with UACC-62 melanoma, 15.6 µM in the experiment with SNB-19 CNS and 12.8 µM in the experiment with OVCAR-4 ovarian. Further, the TGI in the experiment with OVCAR-3 ovarian is 18.2 µM; in the experiment with ACHN renal, 23.2 µM; in the experiment on UO-31 renal, 17.9 µM; with OVCAR-8 ovarian it was 23.9 µM; in the experiment with OVCAR-5 ovarian, > 50 µM; in the experiment on SK-MEL-2 melanoma it was > 50 µM. The TGI was > 50 µM in the experiment with HL-60(TB) leukemia, 15.9 µM with UACC-62 melanoma, > 50 µM in the experiment on SNB-19 CNS and > 50 µM with OVCAR-4 ovarian.
On to `O=C(NCCCCCCCNC(=O)OCc1ccc2c(Cl)cc(Cl)c(O)c2n1)OCc1ccc2c(Cl)cc(Cl)c(O)c2n1`, for which the GI50 was 0.298 µM in the experiment on OVCAR-3 ovarian; 0.26 µM with ACHN renal; 0.321 µM with UO-31 renal; 0.395 µM with OVCAR-8 ovarian; 1.69 µM in the experiment on OVCAR-5 ovarian; 1.33 µM with SK-MEL-2 melanoma. The GI50 is 0.47 µM with HL-60(TB) leukemia, 0.845 µM with UACC-62 melanoma, 1.59 µM with SNB-19 CNS and 0.465 µM in the experiment on OVCAR-4 ovarian. Further, the TGI in the experiment on OVCAR-3 ovarian was determined as 0.838 µM; with ACHN renal, 0.698 µM; in the experiment with UO-31 renal, 1.29 µM; in the experiment on OVCAR-8 ovarian, 1.83 µM; in the experiment on OVCAR-5 ovarian, 3.32 µM; in the experiment on SK-MEL-2 melanoma, 2.78 µM. For the same compound, the TGI with HL-60(TB) leukemia came out at 1.97 µM; in the experiment on UACC-62 melanoma, 2.13 µM; with SNB-19 CNS, 3.06 µM; in the experiment with OVCAR-4 ovarian it was 1.62 µM.
Regarding `O=c1c2ccccc2oc2ccc(OCCCCCCN3CCCCCC3)cc12`, the GI50 in the experiment on OVCAR-3 ovarian was 4.09 µM; in the experiment on ACHN renal it was 3.68 µM; in the experiment with UO-31 renal it was 2.05 µM; with OVCAR-8 ovarian, 4.66 µM; in the experiment on OVCAR-5 ovarian it was 3.24 µM; in the experiment with SK-MEL-2 melanoma, 3.05 µM. Also, the GI50 with HL-60(TB) leukemia was 1.84 µM; in the experiment on UACC-62 melanoma it was 2.29 µM; with SNB-19 CNS it was 4.12 µM; in the experiment with OVCAR-4 ovarian, 3.03 µM. Also, the TGI in the experiment with OVCAR-3 ovarian was found to be 16.1 µM; with ACHN renal it was 13.2 µM; in the experiment on UO-31 renal, 6.32 µM; in the experiment on OVCAR-8 ovarian it was 17.9 µM; in the experiment with OVCAR-5 ovarian, 13.5 µM; in the experiment with SK-MEL-2 melanoma, 9.75 µM. Moreover, the TGI in the experiment on HL-60(TB) leukemia was 3.97 µM; in the experiment with UACC-62 melanoma, 4.78 µM; in the experiment on SNB-19 CNS, 14.4 µM; with OVCAR-4 ovarian, 16.7 µM.
As to `CN(C=O)/C=C/c1cc(O)ccc1O`, the TGI was found to be 32.5 µM with OVCAR-3 ovarian; 29.7 µM in the experiment on ACHN renal; 47 µM in the experiment with UO-31 renal; 72.4 µM with OVCAR-8 ovarian; 63.9 µM in the experiment on OVCAR-5 ovarian; 59.5 µM in the experiment with SK-MEL-2 melanoma. The TGI in the experiment with HL-60(TB) leukemia was 40.8 µM; in the experiment with UACC-62 melanoma, 46.9 µM; in the experiment on SNB-19 CNS, > 100 µM; with OVCAR-4 ovarian, 33.6 µM.
Consider `COc1ccc(OC)c2c3c(ccc12)C(c1ccccc1)OC3=O` (stereo not given), for which the TGI with OVCAR-3 ovarian is 79.9 µM; in the experiment on ACHN renal, > 100 µM; with UO-31 renal, > 100 µM; with OVCAR-8 ovarian, > 100 µM; in the experiment with OVCAR-5 ovarian, > 100 µM; with SK-MEL-2 melanoma it was > 100 µM. The TGI in the experiment on HL-60(TB) leukemia, in the experiment on UACC-62 melanoma, in the experiment on SNB-19 CNS and with OVCAR-4 ovarian was > 100 µM each time.
`COc1cc(/C=C(\C#N)C(N)=C(C#N)C#N)cc(O)c1O`: the TGI in the experiment on OVCAR-3 ovarian, with ACHN renal, in the experiment on UO-31 renal, in the experiment with OVCAR-8 ovarian, in the experiment with OVCAR-5 ovarian and in the experiment with SK-MEL-2 melanoma was > 100 µM throughout. The TGI in the experiment with HL-60(TB) leukemia is > 81.5 µM; in the experiment with UACC-62 melanoma, > 100 µM; with SNB-19 CNS, > 100 µM; in the experiment with OVCAR-4 ovarian, > 100 µM.
With `COC(=O)/C(=N/NC(N)=O)C(C(=O)OC)C(=O)C(=O)Nc1ccc(Cl)cc1` (stereo not given), the TGI with OVCAR-3 ovarian, in the experiment with ACHN renal, in the experiment with UO-31 renal, in the experiment with OVCAR-8 ovarian, in the experiment with OVCAR-5 ovarian and in the experiment on SK-MEL-2 melanoma was > 100 µM each time. For the same compound, the TGI in the experiment on HL-60(TB) leukemia, in the experiment with UACC-62 melanoma, with SNB-19 CNS and with OVCAR-4 ovarian was > 100 µM throughout.
With `COc1ccc(CCN=C2CCC(C(=O)NCCc3ccc(OC)c(OC)c3)N2)cc1OC` (stereo not given), the TGI with OVCAR-3 ovarian, in the experiment with ACHN renal, in the experiment with UO-31 renal, with OVCAR-8 ovarian, in the experiment with OVCAR-5 ovarian and with SK-MEL-2 melanoma was > 100 µM each time. For the same compound, the TGI in the experiment with HL-60(TB) leukemia, in the experiment on UACC-62 melanoma, in the experiment on SNB-19 CNS and with OVCAR-4 ovarian was > 100 µM each time.
Take `O=C(Nc1cccc(NC(=O)c2cc(=O)c3ccccc3o2)n1)c1cc(=O)c2ccccc2o1`: the TGI in the experiment with OVCAR-3 ovarian is > 100 µM; with ACHN renal, > 100 µM; with UO-31 renal, 85.6 µM; in the experiment with OVCAR-8 ovarian, > 100 µM; with OVCAR-5 ovarian, > 100 µM; in the experiment on SK-MEL-2 melanoma, > 100 µM. The TGI in the experiment with HL-60(TB) leukemia, in the experiment on UACC-62 melanoma, with SNB-19 CNS and with OVCAR-4 ovarian was > 100 µM in each case.
